Laboratory results taken from US6797699B1, “Neuroprotective agents” (University of Southampton, priority 1997, dated 2004).
Entries after “also recorded” stand apart in the source; their conditions may differ. Marks after values point to notes of the source that are not given here.

Legend:
[1] = test system: CA1 pyramidal cell layer of organotypic hippocampal slice cultures; experiment: Hypoxic neuronal damage in organotypic hippocampal slice cultures (propidium iodide fluorescence); type: cell-based, Wistar rat
Method: Hypoxic neuronal damage was studied using organotypic hippocampal slice cultures [Pringle A. K. et al. (1996 Stroke 27 2124-2130)].
Cultures were prepared according to the method of Stoppini et al (1991 J. Neurosci. Meth. 37 173-182) from 8-10 day old Wistar rat pups (Bioresources Unit, University of Southampton). Cultures were maintained in vitro for 14 days (37° C., 5% CO2) during which the medium (50% minimum essential medium (MEM), 25% Hank's balanced salt solution (HBSS), 25% heat-inactivated horse serum, supplemented with 1 mM glutamine, 5 mg/ml glucose and 1.5% fungizone) was changed every 3 days. Hypoxia was induced by replacing culture medium with serum-free (SF) medium (75% MEM, 25% HBSS, 1 mM glutamine, 5 mg/ml glucose, 1.5% fungizone) saturated with 95% N2/5% CO2 (and thus oxygen-free), and placing cultures in an air-tight chamber in which the atmosphere was also saturated with N2/CO2. After 180 minutes hypoxia, cultures were replated in normoxic SF medium and replaced in the incubator for 24 hours. Compounds were added to cultures either pre-, during and post-hypoxia (herein abbreviated to “pdp”) or just in the post-hypoxic recovery period (“post”) [Johnson, T. D. (1996 Trends Pharmacol. Sci. 22-27)]. Cell damage was evaluated using the fluorescent exclusion dye propidium iodide (PI, 5 μg/ml) which is normally excluded from healthy cells, but enters cells with damaged plasma membranes and becomes highly fluorescent when bound to DNA. Neuronal cell damage was quantified using the “NIH Image 1.55” software (written by Wayne Rasband at the U.S. National Institutes for Health and available from the internet by anonymous ftp from zippy.nimh.nih.gov). Briefly, the area of the CA1, CA3 and dentate gyrus (DG) cell layers was measured from a transmission image. 24 hours after the commencement of hypoxia, a fluorescence image was captured using a standard Leica inverted fluorescence microscope fitted with a rhodamine filter set. The area of PI fluorescence above background in the neuronal cell layers was determined using the density slice function of Image. Cellular damage is expressed as the percentage area of the cell body layers in which PI fluorescence was detectable. After imaging, cultures were fixed overnight in 4% paraformaldehyde and stained with thionin.
Data are expressed as the mean±sem. Data from the non-drug groups was pooled before analysis. Statistical significance was determined using one-way analysis of variance (ANOVA) followed by post-hoc non-paired Student's t-tests. As only cells within the CA1 region were susceptible to hypoxia-induced damage, all of the pharmacological data was calculated for this region alone.
Table 1 represents the quantification of the percentage area of the CA1 pyramidal cell layer in which PI fluorescence was detectable 24 hours after 3 hours of hypoxia (% Damage CA1). Data from all of the cultures exposed to hypoxia alone were pooled (control hypoxia). The percentage neuroprotection was calculated as the (((% damage control hypoxia-% damage drug treated)/% damage control hypoxia) 100). Data are expressed as the mean±sem, n=number of cultures, *p<0.05, **<0.01, ***p<0.001 vs hypoxia control.

[2] = test system: mice; conditions: FTX isolated from funnel-web spider toxin; Proc. Natl. Acad. Sci. USA 86, 1689-1693 (1989); cited from earlier work
[3] = Table 1, 300 μM added post-hypoxia, 3 h hypoxia, PI at 24 h, control hypoxia 35.6 ± 1.43, mean±sem
[4] = Table 1, 300 μM added post-hypoxia, vs control hypoxia

Row | Molecule | neuroprotective effect / reduction of PI fluorescence in CA1 (in words) ([1]; 300 μM added post-hypoxia) | % Damage CA1 [1, 3] | % Protection [1, 4] [%] | further results
1 | NCCCCNCCCNC(=O)C(N)CCCN [C, N^1-L-Ornithylspermidine] | also protective, although to a lesser extent | 30.6 ± 3.8% | 14.0 | neuroprotective effect / reduction of PI fluorescence in CA1 (in words) ([1]; 300 μM added post-hypoxia, listed as L-OrnSp): less of a significant reduction in damage; also recorded: active
2 | N^1-D-Ornithylspermidine [Compound Z^3] | did not result in any observable reduction of PI fluorescence | 36.71 ± 3.2% | 0 | –
3 | N1-D-Arginylspermidine [Compound Z^1] | – | 32.6 ± 4.1% | 8.4 | neuroprotective effect / reduction of PI fluorescence in CA1 (in words) ([1]; 300 μM added post-hypoxia, listed as D-ArgSp): did not result in any observable reduction of PI fluorescence; also recorded: inactive
4 | NCCCCNCCCN [Spermidine, spermidine, reference compound] | no neuroprotective effects; also recorded: no efficacy was detected | 34.2 ± 5.4% | 3.9 | –
5 | N^1-D-Lysinylspermidine [Compound Z^2] | – | 36.3 ± 3.5% | 0 | neuroprotective effect / reduction of PI fluorescence in CA1 (in words) ([1]; 300 μM added post-hypoxia, listed as D-LysSp): did not result in any observable reduction of PI fluorescence; also recorded: inactive
6 | NCCCCNCCCNC(=O)C(N)CCCCN [B, N^1-L-Lysinylspermidine] | also protective, although to a lesser extent | 27.0 ± 3.7* % | 24.2 | neuroprotective effect / reduction of PI fluorescence in CA1 (in words) ([1]; 300 μM added post-hypoxia, listed as L-LysSp): small but significant reduction in PI fluorescence; also recorded: active
7 | N=C(N)NCCC[C@H](N)C(=O)O [L-Arg, L-arginine, reference compound] | no efficacy was detected | 38.5 ± 4.0% | 0 | neuroprotective effect / reduction of PI fluorescence in CA1 (in words) ([1]; 300 μM added post-hypoxia, listed as L-arginine): Neither spermidine nor L-arginine individually produced a reduction in damage
8 | NCCCCNCCCNC(=O)C(N)CCCNC(N)=O (stereo not drawn) [Compound I] | significant protective effect | – | – | % Protection ([1]; Table 6, 300 μM post): 53%; % Damage CA1 ([1]; Table 6, 300 μM post, hypoxia control 23.2 ± 4.9): 10.9 ± 5.7* %
9 | NC(N)=NCCCC(N)C(=O)O [D-Arg, reference compound] | – | 32.7 ± 7.0% | 8.1 | –
10 | N=C(N)NCCCC(N)C(=O)NCCCNCCCN (stereo not drawn) [FTX] | – | – | – | toxicity to mice (in words) [2]: toxic to mice in extremely small doses
